# Patent US8735414B2 (priority 2009, dated 2014)
# System: bicistronic HCV replicon (replicon RNA, GenBank Accession No. AJ242654)
# Assay: HCV Replicon Assay
# Format: cell-based
# Settings: Hepatitis C virus, 72 h, read-out: Replicon IC50
row,SMILES,IC50 [nM]
1,"Cc1cc2c(cc1F)c(C#N)c(-c1ccc(S(=O)(=O)NC(C)(C)C)cn1)n2-c1ncccn1 [compound 824, N-tert-butyl-6-[3-cyano-5-fluoro-6-methyl-1-(pyrimidin-2-yl)-1H-indol-2-yl]pyridine-3-sulfonamide]",< 500
2,"Cc1cc2c(cc1F)cc(-c1ccc(S(=O)(=O)N[C@@H](C)C(F)(F)F)cn1)n2-c1ccsc1 [compound 987, 6-[5-fluoro-6-methyl-1-(thiophen-3-yl)-1H-indol-2-yl]-N-[(2S)-1,1,1-trifluoropropan-2-yl]pyridine-3-sulfonamide]",< 500
3,"C[C@H](NS(=O)(=O)c1ccc(-c2c(C#N)c3cc(Cl)c(OC(F)F)cc3n2C2CCC2)nc1)C(F)(F)F [compound 636, 6-[5-chloro-3-cyano-1-cyclobutyl-6-(difluoromethoxy)-1H-indol-2-yl]-N-[(2S)-1,1,1-trifluoropropan-2-yl]pyridine-3-sulfonamide]",< 500
4,"N#Cc1c(-c2ncc(S(=O)(=O)NC(CF)CF)cn2)n(C2CCC2)c2cc(C(F)F)ccc12 [compound 330, 2-[3-cyano-1-cyclobutyl-6-(difluoromethyl)-1H-indol-2-yl]-N-(1,3-difluoropropan-2-yl)pyrimidine-5-sulfonamide]",< 500
5,"CCc1cc2c(cc1F)c(C(N)=O)c(-c1ccc(S(=O)(=O)N[C@@H](C)C(F)(F)F)cn1)n2-c1ncccc1Cl [compound 1042, 1-(3-chloropyridin-2-yl)-6-ethyl-5-fluoro-2-(5-{[(2S)-1,1,1-trifluoropropan-2-yl]sulfamoyl}pyridin-2-yl)-1H-indole-3-carboxamide]",500 to 2000
6,"COC(=O)c1cnc(-n2c(-c3ccc(S(=O)(=O)N[C@@H](C)C(F)(F)F)cn3)c(C#N)c3cc(F)c(C)cc32)s1 [compound 985, methyl 2-[3-cyano-5-fluoro-6-methyl-2-(5-{[(2S)-1,1,1-trifluoropropan-2-yl]sulfamoyl}pyridin-2-yl)-1H-indol-1-yl]-1,3-thiazole-5-carboxylate]",< 500
7,"CNC(=O)c1c(-c2ccc(S(=O)(=O)N[C@@H](C)C(F)(F)F)cn2)n(C2CCCC2)c2cc(C)c(F)cc12 [compound 761, (S)-1-cyclopentyl-5-fluoro-N,6-dimethyl-2-(5-(N-(1,1,1-trifluoropropan-2-yl)sulfamoyl)pyridin-2-yl)-1H-indole-3-carboxamide]",< 500
8,"CCS(=O)(=O)Nc1ccc(-c2c(C#N)c3ccc(OCC(F)(F)F)cc3n2CC2CC2)cn1 [compound 290, N-{5-[3-cyano-1-(cyclopropylmethyl)-6-(2,2,2-trifluoroethoxy)-1H-indol-2-yl]pyridin-2-yl}ethanesulfonamide]",2000 to 5000
9,"CCc1cc2c(cc1F)c(C(N)=O)c(-c1ccc(S(=O)(=O)N[C@@H](C)C(F)(F)F)cn1)n2-c1ccc(C)cn1 [compound 1039, 6-ethyl-5-fluoro-1-(5-methylpyridin-2-yl)-2-(5-{[(2S)-1,1,1-trifluoropropan-2-yl]sulfamoyl}pyridin-2-yl)-1H-indole-3-carboxamide]",500 to 2000
10,"COC(=O)c1c(-c2ccc(S(=O)(=O)NC(C)(C)C(F)(F)F)cn2)n(C2CCCC2)c2cc(C)c(F)cc12 [compound 754, methyl 1-cyclopentyl-5-fluoro-6-methyl-2-{5-[(1,1,1-trifluoro-2-methylpropan-2-yl)sulfamoyl]pyridin-2-yl}-1H-indole-3-carboxylate]",< 500
11,"CCc1cc2c(cc1F)c(C#N)c(-c1ccc(S(=O)(=O)N[C@@H](C)C(F)(F)F)cn1)n2-c1ccc(C)cc1 [compound 1004, 6-[3-cyano-6-ethyl-5-fluoro-1-(4-methylphenyl)-1H-indol-2-yl]-N-[(2S)-1,1,1-trifluoropropan-2-yl]pyridine-3-sulfonamide]",< 500
12,"C[C@H](NS(=O)(=O)c1ccc(-c2c(C(N)=O)c3cc(F)c(C4CC4)cc3n2C2CCCC2)nc1)C(F)(F)F [compound 838, 1-cyclopentyl-6-cyclopropyl-5-fluoro-2-(5-{[(2S)-1,1,1-trifluoropropan-2-yl]sulfamoyl}pyridin-2-yl)-1H-indole-3-carboxamide]",< 500
13,"CC(C)S(=O)(=O)Nc1ccc(-c2c(C#N)c3ccc(OCC(F)(F)F)cc3n2CC2CC2)cn1 [compound 291, N-{5-[3-cyano-1-(cyclopropylmethyl)-6-(2,2,2-trifluoroethoxy)-1H-indol-2-yl]pyridin-2-yl}propane-2-sulfonamide]",500 to 2000
14,"N#Cc1c(-c2ncc(S(=O)(=O)NC(CF)CF)cn2)n(C2CCC2)c2cc(C3CC3)c(F)cc12 [compound 145, 2-(3-cyano-1-cyclobutyl-6-cyclopropyl-5-fluoro-1H-indol-2-yl)-N-(1,3-difluoropropan-2-yl)pyrimidine-5-sulfonamide]",< 500
15,"C=Cc1cc2c(cc1F)c(C#N)c(-c1ccc(S(=O)(=O)N[C@@H](C)C(F)(F)F)cn1)n2-c1ncccn1 [compound 908, 6-[3-cyano-6-ethenyl-5-fluoro-1-(pyrimidin-2-yl)-1H-indol-2-yl]-N-[(2S)-1,1,1-trifluoropropan-2-yl]pyridine-3-sulfonamide]",< 500
16,"CC(C)n1c(-c2ncc(S(=O)(=O)NC(CF)CF)cn2)c(C#N)c2ccc(Cl)cc21 [compound 257, 2-[6-chloro-3-cyano-1-(propan-2-yl)-1H-indol-2-yl]-N-(1,3-difluoropropan-2-yl)pyrimidine-5-sulfonamide]",500 to 2000

row,SMILES,IC50 [nM]
1,"C[C@H](NS(=O)(=O)c1ccc(-c2c(C#N)c3ccc(CF)cc3n2C2CCC2)nc1)C1CC1 [compound 317, 6-[3-cyano-1-cyclobutyl-6-(fluoromethyl)-1H-indol-2-yl]-N-[(1S)-1-cyclopropylethyl]pyridine-3-sulfonamide]",< 500
2,"C[C@H](NS(=O)(=O)c1cnc(-c2c(C#N)c3ccc(Cl)cc3n2CC2CC2)nc1)C(F)(F)F [compound 415, 2-[6-chloro-3-cyano-1-(cyclopropylmethyl)-1H-indol-2-yl]-N-[(2S)-1,1,1-trifluoropropan-2-yl]pyrimidine-5-sulfonamide]",< 500
3,"N#Cc1c(-c2ccc(S(=O)(=O)NC(CF)CF)cn2)n(C2CCC2)c2cc(C=C(F)F)ccc12 [compound 103, 6-[3-cyano-1-cyclobutyl-6-(2,2-difluoroethenyl)-1H-indol-2-yl]-N-(1,3-difluoropropan-2-yl)pyridine-3-sulfonamide]",< 500
4,"Cc1cc2c(cc1F)c(C#N)c(-c1ccc(S(=O)(=O)N[C@H](C)C(F)(F)F)cn1)n2-c1ncccn1 [compound 695, 6-[3-cyano-5-fluoro-6-methyl-1-(pyrimidin-2-yl)-1H-indol-2-yl]-N-[(2R)-1,1,1-trifluoropropan-2-yl]pyridine-3-sulfonamide]",< 500
5,"N#Cc1c(-c2ccc(S(=O)(=O)NC(CF)CF)cn2)n(C2CCCC2)c2ccc(C(F)F)cc12 [compound 535, 6-[3-cyano-1-cyclopentyl-5-(difluoromethyl)-1H-indol-2-yl]-N-(1,3-difluoropropan-2-yl)pyridine-3-sulfonamide]",< 500
6,"Cc1cc2c(cc1F)c(C#N)c(-c1ccc(S(=O)(=O)N[C@@H](C)C(F)(F)F)cn1)n2-c1ncco1 [compound 1073, 6-[3-cyano-5-fluoro-6-methyl-1-(1,3-oxazol-2-yl)-1H-indol-2-yl]-N-[(2S)-1,1,1-trifluoropropan-2-yl]pyridine-3-sulfonamide]",< 500
7,"CSc1cc2c(C#N)c(-c3ccc(S(=O)(=O)N[C@@H](C)C(F)(F)F)cn3)n(C3CCC3)c2cc1OC(F)F [compound 685, 6-[3-cyano-1-cyclobutyl-6-(difluoromethoxy)-5-(methylsulfanyl)-1H-indol-2-yl]-N-[(2S)-1,1,1-trifluoropropan-2-yl]pyridine-3-sulfonamide]",500 to 2000
8,"N#Cc1c(-c2ccc(S(=O)(=O)NC3(C(F)(F)F)CC3)cn2)n(C2CCC2)c2cc(O)c(F)cc12 [compound 813, 6-(3-cyano-1-cyclobutyl-5-fluoro-6-hydroxy-1H-indol-2-yl)-N-[1-(trifluoromethyl)cyclopropyl]pyridine-3-sulfonamide]",500 to 2000
9,"CCc1cc2c(cc1F)c(C(N)=O)c(-c1ccc(S(=O)(=O)NC(C)(C)C)cn1)n2-c1ccccn1 [compound 883, 2-(5-(N-tert-butylsulfamoyl)pyridin-2-yl)-6-ethyl-5-fluoro-1-(pyridin-2-yl)-1H-indole-3-carboxamide]",< 500
10,"C[C@H](NS(=O)(=O)c1ccc(-c2c(C#N)c3cc(F)c(CC(F)F)cc3n2C2CCC2)nc1)C(F)(F)F [compound 697, 6-[3-cyano-1-cyclobutyl-6-(2,2-difluoroethyl)-5-fluoro-1H-indol-2-yl]-N-[(2S)-1,1,1-trifluoropropan-2-yl]pyridine-3-sulfonamide]",< 500
11,"CCc1cc2c(cc1F)c(C(N)=O)c(-c1ccc(S(=O)(=O)N[C@@H](C)C(F)(F)F)cn1)n2-c1ccncn1 [compound 1041, 6-ethyl-5-fluoro-1-(pyrimidin-4-yl)-2-(5-{[(2S)-1,1,1-trifluoropropan-2-yl]sulfamoyl}pyridin-2-yl)-1H-indole-3-carboxamide]",< 500
12,"C[C@H](NS(=O)(=O)c1cnc(-c2c(C#N)c3ccc(F)cc3n2C2CCCC2)nc1)C1CC1 [compound 497, 2-(3-cyano-1-cyclopentyl-6-fluoro-1H-indol-2-yl)-N-[(1S)-1-cyclopropylethyl]pyrimidine-5-sulfonamide]",< 500
13,"CC(C)(NS(=O)(=O)c1ccc(-c2c(C(=O)O)c3cc(F)c(OC(F)F)cc3n2C2CCCCC2)nc1)C(F)(F)F [compound 928, 1-cyclohexyl-6-(difluoromethoxy)-5-fluoro-2-{5-[(1,1,1-trifluoro-2-methylpropan-2-yl)sulfamoyl]pyridin-2-yl}-1H-indole-3-carboxylic acid]",< 500
14,"Cc1cc2c(cc1F)c(C(N)=O)c(-c1ncc(S(=O)(=O)N[C@@H](C)C(F)(F)F)cn1)n2C1CCCCC1 [compound 707, 1-cyclohexyl-5-fluoro-6-methyl-2-(5-{[(2S)-1,1,1-trifluoropropan-2-yl]sulfamoyl}pyrimidin-2-yl)-1H-indole-3-carboxamide]",< 500
15,"CC(C)NS(=O)(=O)c1cnc(-c2c(C#N)c3ccc(CC(F)F)cc3n2CC2CC2)nc1 [compound 620, 2-[3-cyano-1-(cyclopropylmethyl)-6-(2,2-difluoroethyl)-1H-indol-2-yl]-N-(propan-2-yl)pyrimidine-5-sulfonamide]",< 500
